ChEMBL document CHEMBL3108671, “Differential Induction of Cytoplasmic Vacuolization and Methuosis by Novel 2-Indolyl-Substituted Pyridinylpropenones” (2014)
One block for each compound: values may come before it. Calls of active or inactive are those of the source. No cut-off for these calls is given here.

Experiments:
U-251 [1] = assay: Induction of methuosis in human U251 cells assessed as detachment of vacuolated cells at 10 uM after 2 days by phase-contrast microscopic analysis; type: functional, cell-based
U-251 [2] = assay: Induction of methuosis in human U251 cells assessed as loss of membrane integrity at 10 uM after 2 days by phase-contrast microscopic analysis; type: functional, cell-based
U-251 [3] = assay: Induction of methuosis in human U251 cells assessed as heavily vacuolated cells at 10 uM after 1 day by phase-contrast microscopic analysis; type: functional, cell-based
U-251 [4] = assay: Growth inhibition of human U251 cells preincubated for 24 hrs followed by compound-washout measured at 48 hrs by sulforhodamine assay; type: functional
U-251 [5] = assay: Induction of methuosis in human U251 cells assessed as sparse cells at 10 uM after 1 day by phase-contrast microscopic analysis; type: functional, cell-based
U-251 [6] = assay: Induction of methuosis in human U251 cells assessed as decrease in cell proliferation at 10 uM after 2 days by phase-contrast microscopic analysis; type: functional, cell-based

Compound: COc1ccc2[nH]cc(/C=C/C(=O)c3ccncc3)c2c1
Activity (U-251 [1]): inactive
Activity (U-251 [6]): inactive
Activity (U-251 [3]): Active
GI50 (U-251 [4]): 18.6 µM

Compound: COc1ccc2[nH]c(CC(C)C)c(/C=C/C(=O)c3ccncc3)c2c1
Activity (U-251 [1]): inactive
Activity (U-251 [6]): inactive
Activity (U-251 [3]): Active
GI50 (U-251 [4]): 16.6 µM

Compound: COc1ccc2[nH]c(C)c(/C=C/C(=O)c3cccnc3)c2c1
Activity (U-251 [6]): inactive
Activity (U-251 [3]): inactive
GI50 (U-251 [4]): 16.9 µM

Compound: COc1ccc2[nH]c(C(C)C)c(/C=C/C(=O)c3ccncc3)c2c1
Activity (U-251 [1]): inactive
Activity (U-251 [6]): inactive
Activity (U-251 [3]): Active
GI50 (U-251 [4]): > 20 µM

The next lines start with results.

GI50 (U-251 [4]): 3.2 µM
Compound: CCc1[nH]c2ccc(OC)cc2c1/C=C/C(=O)c1ccncc1
Activity (U-251 [1]): Active
Activity (U-251 [2]): Active
Activity (U-251 [3]): Active
Activity (U-251 [5]): Active

GI50 (U-251 [4]): 15.3 µM
Compound: CCCc1[nH]c2ccc(OC)cc2c1/C=C/C(=O)c1ccncc1
Activity (U-251 [1]): inactive
Activity (U-251 [6]): inactive
Activity (U-251 [3]): Active
